In patent US11504367B2, “Compounds and methods for treating oxalate-related diseases” (OxaluRx, Inc., priority 2019, dated 2022):

The compounds below were run against recombinant full-length human hydroxyacid oxidase 1 (HAO1), the equivalents of hGOX (Homo sapiens (Human), UniProt Q9UJM8) (assay: In-vitro human glycolate oxidase (hGOX) assay (Amplex red fluorescence)). Settings: 6 nM recombinant human GO, 85 μM glycolate, 10 min preincubation.
Type: biochemical
Procedure: The in-vitro glycolate oxidase assay was performed using recombinant full-length human hydroxyacid oxidase 1 (HAO1), the equivalents of hGOX. […] Purified HAO1 was dissolved in assay buffer consisting of 10 mM NaCl, 110 mM KCl, 2 mM MgCl2, 50 mM HEPES (pH 7.4), and 0.01% Triton™ X-100.
The plates were incubated for 10 min at room temperature, at which point Amplex red reagent (50 μM) was added.
The fluorescence intensity signal was measured on a VariosKan LUX instrument using an excitation of 560 nm and an emission of 590 nm. The IC50 values were calculated using Graphpad Prism. The fluorescence signal of wells containing only DMSO was defined as 100% GO activity, while the fluorescence signal without the glycolate substrate was defined as 0% GO activity.

recombinant full-length human hydroxyacid oxidase 1 (HAO1), the equivalents of hGOX, sequence (Q9UJM8 whole entry): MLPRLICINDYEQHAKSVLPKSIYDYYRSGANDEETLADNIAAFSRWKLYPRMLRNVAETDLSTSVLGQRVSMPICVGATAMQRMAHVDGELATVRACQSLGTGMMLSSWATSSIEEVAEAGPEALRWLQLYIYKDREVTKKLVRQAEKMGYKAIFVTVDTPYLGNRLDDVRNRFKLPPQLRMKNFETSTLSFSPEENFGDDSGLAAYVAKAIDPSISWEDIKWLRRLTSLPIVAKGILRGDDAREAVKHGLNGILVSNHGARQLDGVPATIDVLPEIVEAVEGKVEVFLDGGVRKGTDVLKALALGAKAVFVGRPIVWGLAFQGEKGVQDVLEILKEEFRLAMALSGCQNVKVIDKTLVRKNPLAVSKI

**Q.** `O=C(O)c1nn[nH]c1Oc1ccc(Cl)c(C#Cc2ccccc2)c1` [Example 147, 5-(4-Chloro-3-(2-phenylethynyl)phenoxy)-1H-1,2,3-triazole-4-carboxylic Acid] was tested. Which IC50 did it give?
**A.** 4 nM

**Q.** With `O=C1CCC(C#Cc2cccc(Oc3[nH]nnc3C(=O)O)c2)CC1` [Example 352, 5-(3-((4-Oxocyclohexyl)ethynyl)phenoxy)-1H-1,2,3-triazole-4-carboxylic Acid] as the compound, how does the IC50 read?
**A.** 34 nM

**Q.** How did the IC50 turn out when `CS(=O)(=O)c1ccc(Oc2[nH]nnc2C(=O)O)cc1C#Cc1ccccc1` [Example 149, 5-(4-(Methylsulfonyl)-3-(2-phenylethynyl)phenoxy)-1H-1,2,3-triazole-4-carboxylic Acid] was run?
**A.** 14 nM

**Q.** With `CC(C)(O)C#Cc1ccc(Oc2[nH]nnc2C(=O)O)cc1` [Example 13, 5-(4-(3-Hydroxy-3-methylbut-1-ynyl)phenoxy)-1H-1,2,3-triazole-4-carboxylic Acid] as the compound, how does the IC50 read?
**A.** 440 nM

**Q.** `Cc1ccc(Oc2[nH]nnc2C(=O)O)cc1C#Cc1ccccc1` [Example 262, 5-(4-Methyl-3-(2-phenylethynyl)phenoxy)-1H-1,2,3-triazole-4-carboxylic Acid] was tested. Which IC50 did it give?
**A.** 1 nM

**Q.** How did the IC50 turn out when `O=C(O)c1nonc1Oc1ccc(C#CCC2CC2)cc1` [Example 369, 4-(4-(3-Cyclopropylprop-1-ynyl)phenoxy)-1,2,5-oxadiazole-3-carboxylic Acid] was run?
**A.** > 1000 nM

**Q.** How did the IC50 turn out when `O=C(O)c1nn[nH]c1Oc1ccc(C#Cc2cccnc2)cc1` [Example 309, 5-(4-(2-(Pyridin-3-yl)ethynyl)phenoxy)-1H-1,2,3-triazole-4-carboxylic Acid] was run?
**A.** 3 nM

**Q.** Which IC50 does the source give for `O=C(O)c1nn[nH]c1Nc1cccc(C#CCC2CC2)c1` [Example 363, 5-(3-(3-Cyclopropylprop-1-ynyl)phenylamino)-1H-1,2,3-triazole-4-carboxylic Acid] here?
**A.** 110 nM

**Q.** How did the IC50 turn out when `Cn1cc(Oc2[nH]nnc2C(=O)O)cc(C#CCC2CC2)c1=O` [Example 368, 5-(5-(3-Cyclopropylprop-1-ynyl)-1,6-dihydro-1-methyl-6-oxopyridin-3-yloxy)-1H-1,2,3-triazole-4-carboxylic Acid] was run?
**A.** > 1000 nM

**Q.** For `CCOC(=O)c1nn[nH]c1Oc1cccc(C#CCC(C)(C)F)c1` [Example 377, Ethyl 5-(3-(4-fluoro-4-methylpent-1-ynyl)phenoxy)-1H-1,2,3-triazole-4-carboxylate], which IC50 is on record?
**A.** > 1000 nM

**Q.** How did the IC50 turn out when `O=C(O)c1nn[nH]c1Oc1cc(C#Cc2ccccc2)ccc1F` [Example 261, 5-(2-Fluoro-5-(2-phenylethynyl)phenoxy)-1H-1,2,3-triazole-4-carboxylic Acid] was run?
**A.** 4 nM

**Q.** For `O=C(O)c1nn[nH]c1Oc1ccc(C#CC2CCOCC2)cc1` [Example 40, 5-(4-(2-(Tetrahydro-2H-pyran-4-yl)ethynyl)phenoxy)-1H-1,2,3-triazole-4-carboxylic Acid], which IC50 is on record?
**A.** 40 nM

**Q.** With `CS(=O)(=O)c1ccc(C#Cc2cc(Oc3[nH]nnc3C(=O)O)ccc2F)cc1` [Example 266, 5-(4-Fluoro-3-(2-(4-(methylsulfonyl)phenyl)ethynyl)phenoxy)-1H-1,2,3-triazole-4-carboxylic Acid] as the compound, how does the IC50 read?
**A.** 2 nM

**Q.** With `CCOC(=O)c1nn[nH]c1Oc1cccc(C#CCC(C)C)c1` [Example 366, Ethyl 5-(3-(4-methylpent-1-ynyl)phenoxy)-1H-1,2,3-triazole-4-carboxylate] as the compound, how does the IC50 read?
**A.** > 1000 nM

**Q.** `O=C(O)c1nn[nH]c1Cc1cccc(C#CCC2CC2)c1` [Example 365, 5-(3-(3-Cyclopropylprop-1-ynyl)benzyl)-1H-1,2,3-triazole-4-carboxylic Acid] was tested. Which IC50 did it give?
**A.** 98 nM

**Q.** With `CS(=O)(=O)c1ccc(C#Cc2ccc(Oc3[nH]nnc3C(=O)O)cc2F)cc1` [Example 272, 5-(3-Fluoro-4-(2-(4-(methylsulfonyl)phenyl)ethynyl)phenoxy)-1H-1,2,3-triazole-4-carboxylic Acid] as the compound, how does the IC50 read?
**A.** 2 nM

**Q.** How did the IC50 turn out when `O=C(O)c1nn[nH]c1Sc1ccc(C#CCC2CC2)cc1` [Example 355, 5-(4-(3-Cyclopropylprop-1-ynyl)phenylthio)-1H-1,2,3-triazole-4-carboxylic Acid] was run?
**A.** 6 nM

**Q.** Which IC50 does the source give for `Cn1ccc(C#Cc2cccc(Oc3[nH]nnc3C(=O)O)c2)cc1=O` [Example 257, 4-(3-((1-Methyl-2-oxo-1,2-dihydropyridin-4-yl)ethynyl)phenoxy)-1H-1,2,3-triazole-5-carboxylic Acid] here?
**A.** 1 nM

**Q.** How did the IC50 turn out when `Cc1cc(C#Cc2cccc(Oc3[nH]nnc3C(=O)O)c2)ccn1` [Example 296, 5-(3-(2-(2-Methylpyridin-4-yl)ethynyl)phenoxy)-1H-1,2,3-triazole-4-carboxylic Acid] was run?
**A.** 1 nM

**Q.** For `Cn1ncc2cccc(C#Cc3ccc(Oc4[nH]nnc4C(=O)O)cc3)c21` [Example 325, 5-(4-(2-(1-Methyl-1H-indazol-7-yl)ethynyl)phenoxy)-1H-1,2,3-triazole-4-carboxylic Acid], which IC50 is on record?
**A.** 2 nM

**Q.** Which IC50 does the source give for `COc1cc(C#Cc2cccc(Oc3[nH]nnc3C(=O)O)c2)ccn1` [Example 285, 5-(3-(2-(2-Methoxypyridin-4-yl)ethynyl)phenoxy)-1H-1,2,3-triazole-4-carboxylic Acid] here?
**A.** 3 nM

**Q.** Which IC50 does the source give for `O=C(O)c1nn[nH]c1Oc1ccc(C#Cc2ccc3cn[nH]c3c2)cc1` [Example 329, 5-(4-(2-(1H-Indazol-6-yl)ethynyl)phenoxy)-1H-1,2,3-triazole-4-carboxylic Acid] here?
**A.** 2 nM

**Q.** With `O=C(O)c1nn[nH]c1Oc1cccc(C#Cc2ncccn2)c1` [Example 165, 5-(3-(2-(Pyrimidin-2-yl)ethynyl)phenoxy)-1H-1,2,3-triazole-4-carboxylic Acid] as the compound, how does the IC50 read?
**A.** 6 nM

**Q.** Which IC50 does the source give for `O=C(O)c1nn[nH]c1Oc1ccc(C(F)(F)F)c(C#Cc2ccccc2)c1` [Example 263, 5-(4-(Trifluoromethyl)-3-(2-phenylethynyl)phenoxy)-1H-1,2,3-triazole-4-carboxylic Acid] here?
**A.** 2 nM

**Q.** Which IC50 does the source give for `CC(C)(F)CC#Cc1cccc(Oc2[nH]nnc2C(=O)O)c1` [Example 378, 5-(3-(4-Fluoro-4-methylpent-1-ynyl)phenoxy)-1H-1,2,3-triazole-4-carboxylic Acid] here?
**A.** 40 nM

**Q.** How did the IC50 turn out when `CC(C)(C)CC#Cc1cccc(Oc2[nH]nnc2C(=O)O)c1` [Example 372, 5-(3-(4,4-Dimethylpent-1-ynyl)phenoxy)-1H-1,2,3-triazole-4-carboxylic Acid] was run?
**A.** > 1000 nM

**Q.** For `O=C(O)c1nn[nH]c1Oc1cc(F)cc(C#Cc2ccccc2)c1` [Example 258, 5-(3-Fluoro-5-(2-phenylethynyl)phenoxy)-1H-1,2,3-triazole-4-carboxylic Acid], which IC50 is on record?
**A.** 2 nM

**Q.** With `Cn1ncc2cccc(C#Cc3cccc(Oc4[nH]nnc4C(=O)O)c3)c21` [Example 326, 5-(3-(2-(1-Methyl-1H-indazol-7-yl)ethynyl)phenoxy)-1H-1,2,3-triazole-4-carboxylic Acid] as the compound, how does the IC50 read?
**A.** 2 nM

**Q.** `O=C(O)c1nn[nH]c1Oc1cccc(C#CCc2ccccc2)c1` [Example 349, 5-(3-(3-Phenylprop-1-ynyl)phenoxy)-1H-1,2,3-triazole-4-carboxylic Acid] was tested. Which IC50 did it give?
**A.** 5 nM

**Q.** How did the IC50 turn out when `O=C(O)c1nn[nH]c1Oc1ccc(C#Cc2cccnn2)cc1` [Example 339, 5-(4-(2-(Pyridazin-3-yl)ethynyl)phenoxy)-1H-1,2,3-triazole-4-carboxylic Acid] was run?
**A.** 4 nM

**Q.** For `O=C(O)c1nn[nH]c1Oc1ccc(C#Cc2ccccc2)c(F)c1` [Example 146, 5-(3-Fluoro-4-(2-phenylethynyl)phenoxy)-1H-1,2,3-triazole-4-carboxylic Acid], which IC50 is on record?
**A.** 1 nM
